This note sets out measurements from PubChem BioAssay AID651974 (The Scripps Research Institute Molecular Screening Center, 2013).

The structures appear in SMILES notation. Calls of active or inactive are those of the source. The rule behind the calls is not given here.

The assay is described as follows: compounds lowering VP16-driven luciferase output – cell-based, luminescence, dose response, counter-screen for LRH-1 inverse agonist project, late-stage follow-up (AID 651974). The settings on record: HEK293 cells transfected with Gal4-VP16 and pGL4.31 luciferase reporter. In general terms: The purpose of a counterscreen is to sort out artefacts and off-target activity.
Usually IC50 stands for the concentration that inhibits the measured activity by half. `CCCc1cc(=O)oc2c(C)c(OCC(=O)NCCCn3ccnc3)ccc12`: the IC50 is > 35.9 µM (inactive).
The value for `COc1ccc(NC(=O)COC(=O)c2cc(S(=O)(=O)N3CCCC3)ccc2O)cc1` was > 35.9 µM (inactive); that for `COC(=O)c1ccc(NC(=O)CN2CCN(c3ccc(Cl)cc3)CC2)cc1` was > 35.9 µM (inactive).
On to `COc1ccc(CCNC(=O)COC(=O)Cc2ccccc2[N+](=O)[O-])cc1`, for which the IC50 is > 35.9 µM (inactive).
The value for `O=C(COc1ccc2c3c(c(=O)oc2c1)CCCC3)NCc1ccccn1` was > 35.9 µM (inactive); that for `COc1ccc(CC(NC(C)=O)C(=O)NC2CCN(c3nnnn3-c3ccccc3)CC2)cc1` (stereo not given) was > 35.9 µM (inactive).
`COc1ccc(NC(=O)CSc2ccc3c(c2)OCCO3)cc1`: the IC50 was > 35.9 µM (inactive).
As for `Cc1ccc(NC(=O)CSc2sc3c(O)cc(=O)[nH]c3c2C#N)c(F)c1`, the IC50 is > 35.9 µM (inactive).
The value for `Cc1cccc(NC(=O)COC(=O)CN2C(=O)c3ccccc3C2=O)c1C` was > 35.9 µM (inactive).
As to `O=C(COC(=O)c1ccc[n+]([O-])c1)Nc1ccc([N+](=O)[O-])cc1Cl`, the IC50 is > 35.9 µM (inactive).
The value for `COC(=O)c1ccc(NC(=O)CSc2nc3ncccc3[nH]2)cc1` was > 35.9 µM (inactive); that for `COC(=O)c1ccc(NC(=O)CSc2nn3c(=O)c(C)nnc3s2)cc1` was > 35.9 µM (inactive); that for `COC(=O)c1ccc(NC(=O)COc2cccc(-n3cnnn3)c2)cc1` was > 35.9 µM (inactive).
As for `CC(=O)Nc1ncc(Cc2cc(Cl)ccc2Cl)s1`, the IC50 is > 35.9 µM (inactive).
With `COc1ccc(C2(C)NC(=O)N(CC(=O)NCCC3=CCCCC3)C2=O)cc1OC` (stereo not given), the IC50 is > 35.9 µM (inactive).
For `CCOc1ccc(NC(=O)CSc2nncc(=O)n2N)cc1`, the IC50 was > 35.9 µM (inactive).
On to `CCCc1cc(=O)oc2cc(OCC(=O)NCc3ccccn3)ccc12`, for which the IC50 was > 35.9 µM (inactive).
In the case of `CCc1cc(=O)oc2c(C)c(OCC(=O)NCCN3CCOCC3)ccc12`, the IC50 was > 35.9 µM (inactive).
Turning to `N#CCSc1ccccc1NC(=O)CN1C(=O)C2CC=CCC2C1=O` (stereo not given), the IC50 is > 35.9 µM (inactive).
On to `CC(=O)Nc1ccc(NC(=O)CSc2ccc(-c3ccco3)nn2)cc1`, for which the IC50 was > 35.9 µM (inactive).
Regarding `COc1ccccc1Oc1nnnn1-c1ccc(C(N)=O)cc1`, the IC50 is > 35.9 µM (inactive).
Consider `COc1ccc(NS(=O)(=O)c2ccc(OCC(=O)N3CCN(C)CC3)cc2)cc1Cl`, for which the IC50 is > 35.9 µM (inactive).
The value for `Cc1cc(C)c2sc(NC(=O)c3ccc([N+](=O)[O-])o3)nc2c1` was > 35.9 µM (inactive); that for `CCOc1ccc(OCCN2C(=O)NC(Cc3c[nH]c4ccccc34)C2=O)cc1` (stereo not given) was > 35.9 µM (inactive).
The value for `Cc1ccc(NC(=O)COC(=O)c2cc(=O)c3ccccc3o2)c(Br)c1` was > 35.9 µM (inactive); that for `O=C(COC(=O)CCN1C(=O)C2CC=CCC2C1=O)NCCc1ccc(F)cc1` (stereo not given) was > 35.9 µM (inactive).
With `Cc1cc(OCC(=O)Nc2nccs2)c2c(C)cc(=O)oc2c1`, the IC50 is > 35.9 µM (inactive).
The value for `CCc1c(C)nc(SCC(=O)Nc2ccc3c(c2)OCCO3)[nH]c1=O` was > 35.9 µM (inactive).
In the case of `CCOc1ccc(NC(=O)CSc2nccn(-c3ccc4c(c3)OCCO4)c2=O)cc1`, the IC50 is > 35.9 µM (inactive).
Turning to `O=C(NCC1CCCO1)c1ccc(NC(=O)c2cccc([N+](=O)[O-])c2)cc1` (stereo not given), the IC50 is > 35.9 µM (inactive).
For the molecule `O=C(Nc1ccccc1)c1oc2ccccc2c1NC(=O)C1CC1`, the IC50 was > 35.9 µM (inactive).
For the molecule `CCOc1ccc(OCCC(=O)OCC(=O)Nc2ccc3c(c2)OCCO3)cc1`, the IC50 was > 35.9 µM (inactive).
For `COc1ccc(NC(=O)COC(=O)c2c(-c3ccccc3)noc2C)cc1`, the IC50 is > 35.9 µM (inactive).
In the case of `CCCc1cc(=O)oc2cc(OCC(=O)NCCc3ccc(S(N)(=O)=O)cc3)ccc12`, the IC50 was > 35.9 µM (inactive).
As for `COc1ccc(-n2c(N)c(C(=O)NCc3cccnc3)sc2=S)cc1`, the figure is > 35.9 µM (inactive); as for `COC(=O)c1ccc(CNC(=O)COC(=O)c2cc(Cl)nc(Cl)c2)cc1`, > 35.9 µM (inactive); as for `COc1ccc(CCNC(=O)COC(=O)c2cc(Cl)nc(Cl)c2)cc1`, > 35.9 µM (inactive).
The value for `Cc1ccc2cccc(OCC(=O)NCCC3=CCCCC3)c2n1` was > 35.9 µM (inactive).
Regarding `CCc1cc(=O)[nH]c(SCC(=O)Nc2ccc3c(c2)OCCO3)n1`, the IC50 was > 35.9 µM (inactive).
In the case of `CCOc1ccc(NC(=O)CSc2nnc(C(C)C)n2CC)cc1`, the IC50 was > 35.9 µM (inactive).
With `Cc1cc(Br)ccc1NC(=O)CN1C(=O)CCC1=O`, the IC50 was > 35.9 µM (inactive).
The value for `COc1ccc(NC(=O)CSc2sc3c(O)cc(=O)[nH]c3c2C#N)c(OC)c1` was > 35.9 µM (inactive); that for `Cc1ccc(-c2csc(NC(=O)c3ccc([N+](=O)[O-])o3)n2)cc1` was > 35.9 µM (inactive).
Regarding `CCCc1cc(=O)oc2c(C)c(OCC(=O)NCCN3CCOCC3)ccc12`, the IC50 is > 35.9 µM (inactive).
The value for `COC(=O)c1ccc(NC(=O)CSc2ccc(-c3ccccn3)nn2)cc1` was > 35.9 µM (inactive); that for `O=C(CN1C(=O)CCC1=O)Nc1ccc(Br)cc1` was > 35.9 µM (inactive); that for `CCCN(CC(=O)Nc1ccc(C(C)=O)cc1)CC(=O)Nc1ccccc1C` was > 35.9 µM (inactive).
The value for `COc1ccc(NC(=O)CN2C(=O)NC3(CCCC3)C2=O)cc1` was > 35.9 µM (inactive); that for `COc1ccc(CCNC(=O)COC(=O)c2cccn2C)cc1` was > 35.9 µM (inactive).
The value for `O=C(Nc1ccc(S(=O)(=O)N2CCOCC2)cc1)c1cccc([N+](=O)[O-])c1` was > 35.9 µM (inactive).
As to `COC(=O)c1ccc(NC(=O)CSc2nncn2-c2cccnc2)cc1`, the IC50 was > 35.9 µM (inactive).
The value for `NC(=O)C1CCN(C(=O)COc2ccc3c4c(c(=O)oc3c2)CCCC4)CC1` was > 35.9 µM (inactive); that for `COc1ccc(CCNC(=O)CSc2nn3c(=O)c(C)nnc3s2)cc1OC` was > 35.9 µM (inactive); that for `CCCc1nnc(SCC(=O)Nc2ccc(C(=O)OCC)cc2)o1` was > 35.9 µM (inactive).
As for `CCOc1ccc(NC(=O)COC(=O)COc2cccc3c2OC(C)(C)C3)cc1`, the figure is > 35.9 µM (inactive).
Consider `CC(=O)Nc1ccc(N=c2cc([N+](=O)[O-])cc(Cl)n2O)cc1`, for which the IC50 is > 35.9 µM (inactive).
The value for `CCOc1ccc(NC(=O)COC(=O)c2ccc3c(c2)OCCO3)cc1` was > 35.9 µM (inactive); that for `Cc1cccc(NC(=O)COC(=O)Cc2cccs2)c1C` was > 35.9 µM (inactive).
The value for `CCn1c(SCC(=O)Nc2ccc(Cl)cc2)nnc1C1CC1` was > 35.9 µM (inactive); that for `O=C(OCC(=O)N1CCN(C(=O)COC(=O)c2ccc(O)cc2O)CC1)c1ccc(O)cc1O` was > 35.9 µM (inactive).
As for `COc1ccc(NC(=O)CS(=O)(=O)c2ccc(C)cc2)c(OC)c1`, the IC50 was > 35.9 µM (inactive).
For the molecule `O=C1CCCN2N=C(SCC(=O)Nc3ccc(Br)cc3)SC2=N1`, the IC50 is > 35.9 µM (inactive).
The value for `COc1ccc(CCNC(=O)CSc2ccc(NC(C)=O)cc2)cc1OC` was > 35.9 µM (inactive).
As for `CCOc1ccc(NC(=O)CSc2nc3[nH]ncc3c(=O)[nH]2)cc1`, the figure is > 35.9 µM (inactive); as for `COc1ccc(NC(=O)CSc2nc(N)c(-c3ccccc3)c(=O)[nH]2)cc1`, > 35.9 µM (inactive).
Consider `CCOc1ccc(NC(=O)CN2CCN(CC(=O)Nc3ccc(OC)cc3)CC2)cc1`, for which the IC50 is > 35.9 µM (inactive).
For `Cc1sc(NC(=O)C(C)C)c(C(=O)Nc2ccccc2)c1C`, the IC50 was > 35.9 µM (inactive).
In the case of `O=C(COc1ccc2c3c(c(=O)oc2c1)CCC3)NCc1ccncc1`, the IC50 was > 35.9 µM (inactive).
In the case of `CC1SC(C)C(=O)N(CC(=O)Nc2ccc3c(c2)OCO3)C1=O` (stereo not given), the IC50 was > 35.9 µM (inactive).
For the molecule `O=C(CSc1nnc(CNC(=O)c2ccccc2F)o1)Nc1ccc2c(c1)OCCO2`, the IC50 was > 35.9 µM (inactive).
For the molecule `O=C(NCc1ccco1)c1nn(-c2ccccc2)c(=O)c2ccccc12`, the IC50 is > 35.9 µM (inactive).
The value for `Cc1ccn2c(=O)nc(SCC(=O)Nc3ccc4c(c3)OCCO4)nc2c1` was > 35.9 µM (inactive); that for `O=c1[nH]c(Nc2ccc3c(c2)OCCO3)nnc1Cc1ccccc1` was > 35.9 µM (inactive).
The value for `COc1ccc(CCNC(=O)COC(=O)C23CC4CC(CC(C4)C2)C3)cc1` was > 35.9 µM (inactive); that for `Cc1cc(C)c2nc(NC(=O)c3ccc([N+](=O)[O-])o3)sc2c1` was > 35.9 µM (inactive).
As for `COCC(=O)NC1CCN(CC(=O)Nc2ccc(OC)cc2[N+](=O)[O-])CC1`, the figure is > 35.9 µM (inactive).
Regarding `Cc1ccc(NC(=O)COC(=O)C(NS(=O)(=O)c2ccc(Cl)cc2)C(C)O)cc1C` (stereo not given), the IC50 was > 35.9 µM (inactive).
The value for `CN1CCN(c2ccc(S(=O)(=O)N3CCCCC3)cc2NC(=O)COc2ccc([N+](=O)[O-])cc2)CC1` was > 35.9 µM (inactive); that for `O=C(CSc1nc(=O)n2cc(Cl)ccc2n1)Nc1ccc2c(c1)OCCO2` was > 35.9 µM (inactive); that for `CC(C)CC1(C)NC(=O)N(CC(=O)Nc2ccc3c(c2)OCCO3)C1=O` (stereo not given) was > 35.9 µM (inactive).
Turning to `COc1ccc(NC(=O)CSc2nnc3ccc(-c4cccnc4)nn23)cc1OC`, the IC50 is > 35.9 µM (inactive).
As for `Cc1ccc(NC(=O)COC(=O)C(NS(=O)(=O)c2ccc(Cl)cc2)C(C)O)c(Br)c1` (stereo not given), the figure is > 35.9 µM (inactive); as for `O=C(CSc1nnc(CNC(=O)c2c(F)cccc2F)o1)Nc1ccc2c(c1)OCCO2`, > 35.9 µM (inactive).
With `CCOc1ccc(NC(=O)COC(=O)CC2CCCCC2)cc1`, the IC50 was > 35.9 µM (inactive).
The value for `CC(=O)c1ccc(NC(=O)C(C)O/N=C(\N)c2ccccc2)cc1` (stereo not given) was > 35.9 µM (inactive).
